Series [1] has as its system P. berghei-ANKA-GFP-LucCON liver stage parasites in HepG2-A16-CD81EGFP cells. Kind of series: P. berghei liver stage Pb-Luc assay, Method 1 (UCSD, 1536-well). The series is classed as cell-based, Plasmodium berghei. The settings on record: Method 1; Decrease = decreasing P. berghei viability with dose, Increase = increasing signal, Inactive = no dose response.
Series [2] in a line: in vitro. The settings on record: human; for viability at 48 h / viability at 48 h, 1 µM / viability at 48 h, 3 µM / viability at 66 h: HepG2-A16-CD81EGFP cells, uninfected.
The test system of the next series is HepG2. The settings on record: human, hepg2 cells, 48 h.
Series [3] in a line: in vitro. The settings on record: human, hepg2 cells.
Series [4] has as its system Plasmodium falciparum Dd2 asexual blood stage parasites. Briefly: microbe, parasite or virus in culture. Also noted: species or system Plasmodium falciparum Dd2 in human erythrocytes; single determination (one 11-point concentration-response curve). The settings on record: Plasmodium falciparum, DD2, Erythrocyte, 72 h; read-out: AC50.

The values below come from article PMC7822874, “Chemoprotective antimalarials identified through quantitative high-throughput screening of Plasmodium blood and liver stage parasites” (Scientific Reports, 2021).

Usually viability stands for a read-out of living cells in per cent, often relative to untreated cells. One may read the CC50 as the concentration giving 50% cytotoxicity. What is called AC50 is the concentration at which the activity in the assay is half-maximal.

Take `CC(Sc1nc2ccccc2c(=O)n1C)C(=O)Nc1ccc2c(c1)OCCO2` (stereo not drawn) [MLS002161477-01]: in series [1], the “Max Resp (signal direction of the dose response)” value is “Inactive”. Moreover, in “in vitro [2]”, the viability at 48 h worked out at 84% and the viability at 48 h, 1 µM came out at 84%. In addition, the “Log AC50 (M)” value in the series with HepG2 is -4.3643 M. Also, in “in vitro [3]”, the CC50 at 48 h came to 43.2 µM.

`COc1cc2nc(Nc3ccc(C)c(C)c3)nc(N)c2cc1OC` [NCGC00107261-01]: the AC50 in series [4] was found to be 0.75 µM. Besides, in the series “in vitro [2]”, the viability at 48 h, 1 µM is 107% and the viability at 48 h, 3 µM came out at 97%. In addition, the “Log AC50 (M)” value in the series on HepG2 was -4.3643 M. In the series “in vitro [3]”, half-maximal cytotoxicity (CC50 at 48 h) was put at 43.2 µM.

In the case of `CCc1ccc([S+](=O)([O-])c2nnn3c2nc(Nc2ccc(F)cc2)c2cc(Cl)ccc23)cc1` [NCGC00112284-01], in series [4], the AC50 was 2.11 µM. In the series “in vitro [2]”, the viability at 66 h came out at 105%. In addition, the “Log AC50 (M)” value with HepG2 is given as -4.4643 M. This compound also had a CC50 at 48 h in “in vitro [3]” of 34.3 µM.

Regarding `COc1ccc(/C=N/Nc2cc(C)nc3ccccc23)cc1` [MLS001210939-01], the AC50 in series [4] amounted to 2.11 µM. In addition, in the series “in vitro [2]”, the viability at 48 h, 1 µM is 92% and the viability at 48 h, 3 µM came out at 87%. Besides, the “Log AC50 (M)” value with HepG2 is -4.5143 M. Besides, the CC50 at 48 h in the series “in vitro [3]” was 30.6 µM.

Take `CN1CCC(NCCC(c2ccc(F)cc2)c2ccc(Cl)cc2)CC1` (stereo not drawn) [MLS001215866-01]: the AC50 in series [4] turned out to be 4.22 µM. In the series “in vitro [2]”, the viability at 66 h was determined as 98.6%. Moreover, the “Log AC50 (M)” value in the series with HepG2 is recorded as -4.4643 M. In addition, the CC50 at 48 h in “in vitro [3]” was found to be 34.3 µM.

On to `Cc1c2ccncc2c(C)c2c1[nH]c1ccccc12` [MLS001076505-01], for which the AC50 in series [4] stood at 3.35 µM. For the same compound, in the series “in vitro [2]”, the viability worked out at 102%. Further, the “Log AC50 (M)” value in the series with HepG2 is recorded as -4.3643 M. This compound also displayed a CC50 at 48 h in the series “in vitro [3]” of 43.2 µM.

Turning to `CCNc1nc(NC(C)(C)C)nc(N2CCCC2)n1` [MLS000528993-01], the AC50 in series [4] came to 2.37 µM. Also, the viability at 66 h in the series “in vitro [2]” worked out at 99.9%. Also, the “Log AC50 (M)” value in the series on HepG2 was -4.3643 M. This compound also registered a 50% cytotoxic concentration (CC50) at 48 h in “in vitro [3]” of 43.2 µM.

Consider `c1ccc(-[n+]2nc(Nc3cccc4ccccc34)sc2-c2c3ccccc3cc3ccccc23)cc1` [MLS000949879-01], for which, in series [4], the AC50 turned out to be 5.96 µM. Moreover, the viability at 66 h in “in vitro [2]” came to 95.1%. In addition, in the series with HepG2, the “Log AC50 (M)” value is listed as -4.3643 M. The compound further yielded a CC50 at 48 h in the series “in vitro [3]” of 43.2 µM.

As to `N=c1ccn(Cc2ccc(Cl)cc2)cc1` [MLS000080110-01], in series [4], the AC50 was 8.41 µM. The viability at 66 h in “in vitro [2]” came to 101%. In addition, the “Log AC50 (M)” value in the series with HepG2 is on record as -4.4643 M. Further, the CC50 at 48 h in “in vitro [3]” amounted to 34.3 µM.

In the case of `Cc1cnc(C(=O)Nc2cccc3cccnc23)cn1` [MLS000033120-01], the concentration at half-maximal activity (AC50) in series [4] came to 2.66 µM. In the series “in vitro [2]”, the viability at 66 h was determined as 105%. In the series with HepG2, the “Log AC50 (M)” value is listed as -6.2143 M. In the series “in vitro [3]”, this compound returned a CC50 at 48 h of 0.611 µM.

`Cc1cc(O)c(-c2cc(C(=O)Nc3sc4c(c3C(=O)NCc3ccco3)CCC4)[nH]n2)cc1C` [MLS000331999-01]: the “Max Resp (signal direction of the dose response)” value in series [1] was “Inactive”. Also, the viability at 66 h in “in vitro [2]” is 106%. The “Log AC50 (M)” value with HepG2 was -4.4643 M. For the same compound, half-maximal cytotoxicity in the series “in vitro [3]” (CC50 at 48 h) was put at 34.3 µM.

`OC(c1cc(-c2ccc(C(F)(F)F)cc2)nc(C(F)(F)F)c1)C1CCCCN1` (stereo not drawn) [MLS000757046-01]: the AC50 in series [4] came out at 0.15 µM. Besides, in the series “in vitro [2]”, the viability at 48 h, 1 µM was 109% and the viability at 48 h, 3 µM turned out to be 105%. The “Log AC50 (M)” value in the series on HepG2 was -4.3643 M. This compound also had a CC50 at 48 h in the series “in vitro [3]” of 43.2 µM.

On to `Cc1cccc(Oc2nc(-c3ccccn3)nc3ccccc23)c1` [MLS000769548-01], for which, in series [4], the half-maximal activity concentration (AC50) came to 7.5 µM. Further, in the series “in vitro [2]”, the viability at 48 h amounted to 106% and the viability at 48 h, 1 µM amounted to 106%. In addition, the “Log AC50 (M)” value with HepG2 was -4.9143 M. Moreover, it took 12.2 µM to reach half-maximal cytotoxicity in “in vitro [3]” (CC50 at 48 h).

For `COc1cc(OC)c(NC2=CC(=O)C(=O)c3ccccc32)cc1Cl` [MLS001198657-01], the AC50 in series [4] is 2.99 µM. In addition, in “in vitro [2]”, the viability at 48 h, 1 µM worked out at 93% and the viability at 48 h, 3 µM turned out to be 59%. The “Log AC50 (M)” value in the series on HepG2 is on record as -4.3643 M. Besides, the CC50 at 48 h in the series “in vitro [3]” came out at 43.2 µM.

As for `CCN1CCN(Cc2ccc(NC(=O)c3ccc(C)c(NC(=O)c4cnc5cc(C(F)(F)F)ccc5c4O)c3)cc2C(F)(F)F)CC1` [MLS000911561-01], in series [4], the AC50 is 0.531 µM. Further, in “in vitro [2]”, the viability at 48 h, 1 µM worked out at 107% and the viability at 48 h, 3 µM is 104%. Besides, the “Log AC50 (M)” value in the series on HepG2 was -4.4643 M. This compound also registered a CC50 at 48 h in the series “in vitro [3]” of 34.3 µM.

Take `COc1ccc(C2c3ccc4ccccc4c3Oc3ncn(CCCN(C)C)c(=N)c32)cc1` (stereo not drawn) [MLS001216280-01]: the AC50 in series [4] was 2.99 µM. For the same compound, in “in vitro [2]”, the viability at 48 h, 1 µM came out at 109% and the viability at 48 h, 3 µM came out at 103%. Moreover, in the series with HepG2, the “Log AC50 (M)” value was -4.4643 M. Half-maximal cytotoxicity in “in vitro [3]” (CC50 at 48 h) was put at 34.3 µM.

On to `CCn1c(/C=C/c2cc(Br)ccc2O)nc2ccccc2c1=O` [MLS001205008-01], for which the half-maximal activity concentration (AC50) in series [4] is 4.22 µM. Further, in the series “in vitro [2]”, the viability at 48 h, 1 µM came out at 104% and the viability at 48 h, 3 µM worked out at 101%. Further, the “Log AC50 (M)” value in the series with HepG2 is reported as -4.8643 M. The CC50 at 48 h in “in vitro [3]” turned out to be 13.7 µM.

For `c1ccc2cc3c(NCCN4CCOCC4)ccnc3cc2c1` [MLS000702892-01], in series [4], the AC50 stood at 1.68 µM. In the series “in vitro [2]”, the viability at 48 h, 1 µM stood at 89% and the viability at 48 h, 3 µM was 92%. In addition, the “Log AC50 (M)” value in the series with HepG2 is given as -4.3643 M. The compound further yielded a CC50 at 48 h in “in vitro [3]” of 43.2 µM.

For the compound `CC1(C)N=C(N)N=C(N)N1c1ccc(OCCCOc2ccccc2)c(Cl)c1` [MLS000738223-01], the AC50 in series [4] is 2.99 µM. In “in vitro [2]”, the viability at 48 h, 1 µM amounted to 39% and the viability at 48 h, 3 µM was found to be 32%. Besides, the “Log AC50 (M)” value in the series with HepG2 is -5.1143 M. Further, the CC50 at 48 h in the series “in vitro [3]” was 7.69 µM.

`CCCN(CCC)CCNC(=O)c1cc2c(-c3ccc(Cl)cc3)nn(C)c2s1` [NCGC00108997-01]: the AC50 in series [4] was 0.596 µM. Moreover, in the series “in vitro [2]”, the viability at 48 h, 1 µM was 102% and the viability at 48 h, 3 µM was 98%. The “Log AC50 (M)” value in the series on HepG2 is -4.3643 M. For the same compound, the CC50 at 48 h in “in vitro [3]” amounted to 43.2 µM.

On to `CCN(CC)CCn1c(=N)n(CC(=O)c2ccc(Br)s2)c2ccccc21` [MLS001045932-01], for which the AC50 in series [4] turned out to be 5.31 µM. In “in vitro [2]”, the viability at 48 h, 1 µM came out at 91% and the viability at 48 h, 3 µM was 91%. Also, the “Log AC50 (M)” value in the series with HepG2 is reported as -4.5143 M. The same compound yielded a CC50 at 48 h in the series “in vitro [3]” of 30.6 µM.

`CC(=O)Nc1ccc(NC2=Nc3ccccc3N3C2=Nc2c(c(C)nn2-c2ccccc2)C3c2ccccc2)cc1` (stereo not drawn) [MLS000555438-01]: the AC50 in series [4] is 6.68 µM. In addition, the viability at 66 h in “in vitro [2]” turned out to be 95.3%. Further, in the series with HepG2, the “Log AC50 (M)” value is -4.3143 M. The compound also came in with a CC50 at 48 h in “in vitro [3]” of 48.5 µM.

For the compound `CN(C)CC(CCC(CN(C)C)C(O)(c1ccccc1)c1ccccc1)C(O)(c1ccccc1)c1ccccc1` (stereo not drawn) [MLS001173677-01], the AC50 in series [4] came to 2.11 µM. Also, in the series “in vitro [2]”, the viability at 48 h, 1 µM amounted to 101% and the viability at 48 h, 3 µM was 98%. In addition, the “Log AC50 (M)” value in the series with HepG2 is -4.4643 M. The same compound had a CC50 at 48 h in the series “in vitro [3]” of 34.3 µM.

Regarding `O=C(NC(c1ccc(Cl)cc1)c1cc(Cl)c2cccnc2c1O)c1cccnc1` (stereo not drawn) [MLS000573463-01], the AC50 in series [4] was 5.96 µM. Also, in “in vitro [2]”, the viability at 48 h, 1 µM came out at 84% and the viability at 48 h, 3 µM came to 68%. Also, the “Log AC50 (M)” value with HepG2 was -4.3643 M. The compound also had a CC50 at 48 h in the series “in vitro [3]” of 43.2 µM.
